{"source": "patent US20250002453A1", "about": "“PHARMACEUTICALLY ACCEPTABLE SALT OF ELIGLUSTAT AND CRYSTAL FORM THEREOF” (SPEROGENIX (SHANGHAI) MEDTECH CO., LTD., priority 2021, published 2025)", "key": {"[1]": {"settings": "as described in WO2011066352A1; cited from earlier work"}, "[2]": {"experiment": "Deliquescence / moisture uptake observed under room humidity or during XRPD testing", "assay_type": "physicochemical", "settings": "under room humidity conditions", "procedure": "Free crystalline form A and 0.5 equivalent of L-malic acid were suspended and stirred in EtOAc for 1 day at room temperature to obtain the sample. The solid was separated by centrifugation and dried under vacuum to obtain crystalline form A of malate.\nFree crystalline form A and 0.5 equivalent of L-malic acid were suspended and stirred in IPAc/n-heptane (1:5, v:v) for 1 day at room temperature and 2 days at 40° C., and then the solid was separated by centrifugation. Upon vacuum drying, crystalline form B of malate was obtained."}, "[3]": {"experiment": "Dynamic solubility test (water, SGF, FaSSIF, FeSSIF; 37° C.; 1, 4 and 24 hours)", "assay_type": "physicochemical", "settings": "37° C.; for FC: Crystalline form transformation: XRPD of residual solid", "procedure": "0.2 g sodium chloride and 0.1 g Triton X-100 are weighted into a 100 mL volumetric flask. Pure water is added for dissolution, stirred until the solid is completely dissolved, about 1.632 mL hydrochloric acid (1M) is added, and the pH is adjusted to 1.8 with 1M hydrochloric acid or 1M sodium hydroxide, and finally it is diluted to volume with pure water.\n0.34 g sodium dihydrogen phosphate (NaH2PO4, anhydrous), 0.042 g sodium hydroxide, and 0.62 g sodium chloride are weighted respectively into a 100 mL volumetric flask, about 48 mL pure water is added for dissolution, the pH is adjusted to 6.5 with 1M hydrochloric acid or 1M sodium hydroxide, and finally it is diluted to volume with pure water to obtain a stock solution. A 50-mL volumetric flask is taken. 0.11 g of SIF powder is added, and dissolved with the above stock solution, then diluted to volume. The powder is completely dissolve by ultrasound.\n(§1) The purity test, dynamic solubility and stability test in the experiment are completed by Agilent 1260 high performance liquid chromatography. The salt-forming molar ratio test of ions is completed by ion chromatography test.\nThe dynamic solubility of crystalline form B/crystalline form C of 1,5-naphthalene disulfonate, crystalline form A of oxalate, crystalline form A of tartrate and free crystalline form A in water and three biological solvents were evaluated.\nAfter sampling at each time point, the samples were centrifugally filtered (0.45 μm PTFE filter head), the free salt concentration and pH value in the filtrate were measured, and the solid samples after centrifugation were tested for XRPD."}, "[4]": {"experiment": "Evaluation of hygroscopicity by Dynamic Vapor Sorption (DVS)", "assay_type": "physicochemical", "procedure": "Dynamic Vapor Sorption (DVS) profiles are collected on the DVS Intrinsic of SMS (Surface Measurement Systems). Relative humidity at 25° C. is corrected with the deliquescent points of LiCl, Mg(NO3)2 and KCl.\nThe hygroscopicity of crystalline form B/crystalline form C of 1,5-naphthalene disulfonate, crystalline form A of oxalate, crystalline form A of tartrate and free crystalline form A were evaluated by DVS."}, "[5]": {"experiment": "Solid state stability assessment (XRPD and HPLC after exposure at 25° C./60% RH and 40° C./75% RH)", "assay_type": "physicochemical", "settings": "left exposed for 4 weeks at 25° C./60% RH and 40° C./75% RH", "procedure": "XRPD patterns are collected on an X-ray powder diffraction analyzer produced by PANalytacal, and Table 2 lists the XRPD parameters.\nas §1\nAfter leaving the crystalline form C of 1,5-naphthalene disulfonate in the exposure evaporation at 25° C./60% RH and 40° C./75% RH for 1 week, […] and 4 weeks. The physical and chemical stability of the sample was tested by XRPD and HPLC, and the stability data of crystalline form A of tartrate and free crystalline form A at 1 week, 2 weeks and 4 weeks were used as a reference. At the same time, the stability of crystalline form B of 1,5-naphthalene disulfonate and crystalline form A of oxalate was tested under the conditions of 25° C./60% RH and 40° C./75% RH for 1 week."}, "[6]": {"settings": "plasma concentration of eliglustat 500 ng/ml; cited from earlier work"}}, "note": "Entries after “also recorded” stand apart in the source; their conditions may differ. Like-named read-outs stand apart in the source and are kept apart here.", "data": [{"smiles": "CCCCCCCC(=O)NC(CN1CCCC1)C(O)c1ccc2c(c1)OCCO2.O=C(O)C(O)C(O)C(=O)O", "note": "(centres unmarked) [1:1 tartrate salt]", "values": [{"measurement": "hygroscopicity (in words)", "setting": "[1]", "value": "too hygroscopic for formulation"}]}, {"smiles": "CCCCCCCC(=O)NC(CN1CCCC1)C(O)c1ccc2c(c1)OCCO2.O=C(O)CC(O)C(=O)O", "note": "(centres unmarked) [Crystalline form A of malate]", "values": [{"measurement": "deliquescence / moisture absorption", "setting": "[2]", "value": "deliquesced significantly"}]}, {"smiles": "CCCCCCCC(=O)N[C@H](CN1CCCC1)[C@H](O)c1ccc2c(c1)OCCO2", "note": "[Free crystalline form A, reference compound]", "values": [{"measurement": "S: Solubility (free concentration)", "setting": "[3]; FaSSIF, 1 hr", "value": 4400, "unit": "µg/mL"}, {"measurement": "pH (of filtrate)", "setting": "[3]; FaSSIF, 1 hr", "value": 7.31}, {"measurement": "FC: Crystalline form transformation", "setting": "[3]; FaSSIF, 1 hr", "value": "No"}, {"measurement": "S: Solubility (free concentration)", "setting": "[3]; FaSSIF, 4 hrs", "value": 4400, "unit": "µg/mL"}, {"measurement": "pH (of filtrate)", "setting": "[3]; FaSSIF, 4 hrs", "value": 7.29}, {"measurement": "FC: Crystalline form transformation", "setting": "[3]; FaSSIF, 4 hrs", "value": "No"}, {"measurement": "S: Solubility (free concentration)", "setting": "[3]; FaSSIF, 12 hrs", "value": 4200, "unit": "µg/mL"}, {"measurement": "pH (of filtrate)", "setting": "[3]; FaSSIF, 12 hrs", "value": 7.30}, {"measurement": "FC: Crystalline form transformation", "setting": "[3]; FaSSIF, 12 hrs", "value": "No"}, {"measurement": "S: Solubility (free concentration)", "setting": "[3]; H2O, 1 hr", "value": 120, "unit": "µg/mL"}, {"measurement": "pH (of filtrate)", "setting": "[3]; H2O, 1 hr", "value": 9.24}, {"measurement": "FC: Crystalline form transformation", "setting": "[3]; H2O, 1 hr", "value": "No"}, {"measurement": "S: Solubility (free concentration)", "setting": "[3]; H2O, 4 hrs", "value": 130, "unit": "µg/mL"}, {"measurement": "pH (of filtrate)", "setting": "[3]; H2O, 4 hrs", "value": 9.03}, {"measurement": "FC: Crystalline form transformation", "setting": "[3]; H2O, 4 hrs", "value": "No"}, {"measurement": "S: Solubility (free concentration)", "setting": "[3]; H2O, 12 hrs", "value": 170, "unit": "µg/mL"}, {"measurement": "pH (of filtrate)", "setting": "[3]; H2O, 12 hrs", "value": 8.80}, {"measurement": "FC: Crystalline form transformation", "setting": "[3]; H2O, 12 hrs", "value": "No"}, {"measurement": "S: Solubility (free concentration)", "setting": "[3]; SGF, 1 hr", "value": 6600, "unit": "µg/mL"}, {"measurement": "pH (of filtrate)", "setting": "[3]; SGF, 1 hr", "value": 7.27}, {"measurement": "FC: Crystalline form transformation", "setting": "[3]; SGF, 1 hr", "value": "No"}, {"measurement": "S: Solubility (free concentration)", "setting": "[3]; SGF, 4 hrs", "value": 6700, "unit": "µg/mL"}, {"measurement": "pH (of filtrate)", "setting": "[3]; SGF, 4 hrs", "value": 7.26}, {"measurement": "FC: Crystalline form transformation", "setting": "[3]; SGF, 4 hrs", "value": "No"}, {"measurement": "S: Solubility (free concentration)", "setting": "[3]; SGF, 12 hrs", "value": 6500, "unit": "µg/mL"}, {"measurement": "pH (of filtrate)", "setting": "[3]; SGF, 12 hrs", "value": 7.30}, {"measurement": "FC: Crystalline form transformation", "setting": "[3]; SGF, 12 hrs", "value": "No"}, {"measurement": "hygroscopicity (in words)", "setting": "[4]; DVS", "value": "almost no hygroscopicity"}, {"measurement": "Hygroscopic weight gain at 25° C./80% RH", "setting": "[4]; DVS, 25° C./80% RH", "value": 0.01, "unit": "%"}, {"measurement": "Transformation of crystalline form", "setting": "[4]; after DVS test", "value": "did not change in crystalline form; also recorded: No change"}, {"measurement": "change in crystalline form (XRPD)", "setting": "[5]", "value": "no change in crystalline form"}, {"measurement": "decrease in HPLC purity", "setting": "[5]", "value": "no change in crystalline form or decrease in HPLC purity was observed"}]}, {"smiles": "CCCCCCCC(=O)N[C@H](CN1CCCC1)[C@H](O)c1ccc2c(c1)OCCO2", "note": "[eliglustat]", "values": [{"measurement": "predicted mean increase in PR interval", "setting": "[6]", "value": "22 (26) milliseconds"}, {"measurement": "predicted mean increase in QRS interval", "setting": "[6]", "value": "7 (10) milliseconds"}, {"measurement": "predicted mean increase in QTcF interval", "setting": "[6]", "value": "13 (19) milliseconds"}]}, {"smiles": "CCCCCCCC(=O)N[C@H](CN1CCCC1)[C@H](O)c1ccc2c(c1)OCCO2.Cl", "note": "[hydrochloride salt]", "values": [{"measurement": "hygroscopicity (in words)", "setting": "[1]", "value": "too hygroscopic for formulation"}]}]}
